This passage reports EC50 results from patent publication US8574563B2 (Bristol-Myers Squibb Company, priority 2006, dated 2013).

In the assay the test system is HCV 1b-377-neo replicon cells. The assay can be described thus: HCV replicon assay, HCV 1b-377-neo replicon cells (1b FRET). It is filed as cell-based, Hepatitis C virus genotype 1b. Particulars: Hepatitis C virus, HCV 1b-377-neo replicon cells; HCV 1b genotype; read-out: EC50 range against HCV 1b (Table 2, Range). The essentials: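 Compounds were tested in genotype 1b subgenomic replicon cells carrying a neomycin marker, alongside a matched replicon line with an NS5A Y2065H substitution that confers resistance to a reference NS5A inhibitor.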
The EC50 is the concentration at which the effect is half-maximal. Regarding `COC(=O)N[C@H](C(=O)N1CCC[C@H]1c1nc(-c2cnc(-c3ccc(-c4cnc([C@@H]5CCCN5C(=O)[C@@H](NC(=O)OC)C(C)C)[nH]4)c(F)c3)nc2)c[nH]1)C(C)C` [Example D68, methyl ((1S)-1-(((2S)-2-(5-(2-fluoro-4-(5-(2-((2S)-1-((2S)-((methoxycarbonyl)amino)-3-methylbutanoyl)-2-pyrrolidinyl)-1H-imidazol-5-yl)-2-pyrimidinyl)phenyl)-1H-imidazol-2-yl)-1-pyrrolidinyl)carbonyl)-2-methylpropyl) carbamate], the concentration for a half-maximal effect (EC50) was in the range of 1 to 999 pM.

Regarding `COC(=O)N[C@@H](C(=O)N1CCC[C@H]1c1nc(-c2cnc(-c3ccc(-c4cnc([C@@H]5CCCN5C(=O)[C@H](NC(=O)OC)c5ccccc5)[nH]4)c(F)c3)nc2)c[nH]1)c1ccccc1` [Example D69, methyl ((1R)-2-((2S)-2-(5-(2-(3-fluoro-4-(2-((2S)-1-((2R)-2-((methoxycarbonyl)amino)-2-phenylacetyl)-2-pyrrolidinyl)-1H-imidazol-5-yl)phenyl)-5-pyrimidinyl)-1H-imidazol-2-yl)-1-pyrrolidinyl)-2-oxo-1-phenylethyl)carbamate], the 50% effective concentration (EC50) was in the range of 1 to 999 pM.

`COC(=O)N[C@H](C(=O)N1CCC[C@H]1c1nc(-c2cnc(-c3ccc(-c4cnc([C@@H]5CCCN5C(=O)[C@@H](NC(=O)OC)[C@@H](C)OC)[nH]4)c(F)c3)nc2)c[nH]1)[C@@H](C)OC` [Example D70, methyl ((1S,2R)-1-(((2S)-2-(5-(2-fluoro-4-(5-(2-((2S)-1-(N-(methoxycarbonyl)-O-methyl-L-threonyl)-2-pyrrolidinyl)-1H-imidazol-5-yl)-2-pyrimidinyl)phenyl)-1H-imidazol-2-yl)-1-pyrrolidinyl)carbonyl)-2-methoxypropyl) carbamate]: the concentration for a half-maximal effect (EC50) is 1 to 999 pM.

On to `COC(=O)N[C@@H](C)C(=O)N1CCC[C@H]1c1nc(-c2cnc(-c3ccc(-c4cnc([C@@H]5CCCN5C(=O)[C@H](C)NC(=O)OC)[nH]4)cc3)nc2)c[nH]1` [Example D73, methyl ((1S)-2-((2S)-2-(5-(4-(5-(2-((2S)-1-(N-(methoxycarbonyl)-L-alanyl)-2-pyrrolidinyl)-1H-imidazol-5-yl)-2-pyrimidinyl)phenyl)-1H-imidazol-2-yl)-1-pyrrolidinyl)-1-methyl-2-oxoethyl)carbamate], for which the EC50 fell in the range of 1 to 999 pM.

`COC(=O)N[C@H](C(=O)N1CCC[C@H]1c1nc(-c2cnc(-c3ccc(-c4cnc([C@@H]5CCCN5C(=O)[C@@H](NC(=O)OC)C(C)C)[nH]4)cc3)nc2)c[nH]1)C(C)C` [Example D74, methyl ((1S)-1-(((2S)-2-(5-(2-(4-(2-((2S)-1-((2S)-2-((methoxycarbonyl)amino)-3-methylbutanoyl)-2-pyrrolidinyl)-1H-imidazol-5-yl)phenyl)-5-pyrimidinyl)-1H-imidazol-2-yl)-1-pyrrolidinyl)carbonyl)-2-methylpropyl)carbamate]: the half-maximal effective concentration (EC50) lay within 1 to 999 pM.

As to `COC(=O)N[C@H](C(=O)N1CCC[C@H]1c1nc(-c2cnc(-c3ccc(-c4cnc([C@@H]5CCCN5C(=O)[C@@H](NC(=O)OC)C5CC5)[nH]4)cc3)nc2)c[nH]1)C1CC1` [Example D75, methyl ((1S)-1-cyclopropyl-2-((2S)-2-(5-(2-(4-(2-((2S)-1-((2S)-2-cyclopropyl-2-((methoxycarbonyl)amino)acetyl)-2-pyrrolidinyl)-1H-imidazol-5-yl)phenyl)-5-pyrimidinyl)-1H-imidazol-2-yl)-1-pyrrolidinyl)-2-oxoethyl)carbamate], the EC50 was 1 to 999 pM.

Turning to `CCN(CC)[C@@H](C(=O)N1CCC[C@H]1c1ncc(-c2ccc(-c3ncc(-c4c[nH]c([C@@H]5CCCN5C(=O)[C@@H](NC(=O)OC)C(C)C)n4)cn3)cc2)[nH]1)c1ccccc1` [Example D76], the concentration giving a half-maximal response (EC50) fell in the range of 1 to 999 pM.

For `CCN(CC)[C@@H](C(=O)N1CCC[C@H]1c1ncc(-c2ccc(-c3ncc(-c4c[nH]c([C@@H]5CCCN5C(=O)[C@H](C)NC(=O)OC)n4)cn3)cc2)[nH]1)c1ccccc1` [Example D77, methyl ((1S)-2-((2S)-2-(5-(2-(4-(2-((2S)-1-((2R)-2-(diethylamino)-2-phenylacetyl)-2-pyrrolidinyl)-1H-imidazol-5-yl)phenyl)-5-pyrimidinyl)-1H-imidazol-2-yl)-1-pyrrolidinyl)-1-methyl-2-oxoethyl)carbamate], the 50% effective concentration (EC50) was in the range of 1 to 999 pM.

As to `Cc1[nH]c([C@@H]2CCCN2C(=O)[C@@H](c2ccccc2)N(C)C)nc1-c1ccc(-c2ccc(-c3cnc([C@@H]4CCCN4C(=O)[C@@H](c4ccccc4)N(C)C)[nH]3)cc2)cc1` [Example E5, (1R)-2-((2S)-2-(4-(4′-(2-((2S)-1-((2R)-2-(dimethylamino)-2-phenylacetyl)-2-pyrrolidinyl)-1H-imidazol-4-yl)-4-biphenylyl)-5-methyl-1H-imidazol-2-yl)-1-pyrrolidinyl)-N,N-dimethyl-2-oxo-1-phenylethanamine], the EC50 fell in the range of 1 to 999 pM.

Consider `CCN(CC)[C@@H](C(=O)N1CCC[C@H]1c1ncc(-c2ccc(-c3ccc(-c4nc([C@@H]5CCCN5C(=O)[C@@H](c5ccccc5)N(CC)CC)[nH]c4C)cc3)cc2)[nH]1)c1ccccc1` [Example E5a, (1R)-2-((2S)-2-(4-(4′-(2-((2S)-1-((2R)-2-(diethylamino)-2-phenylacetyl)-2-pyrrolidinyl)-1H-imidazol-4-yl)-4-biphenylyl)-5-methyl-1H-imidazol-2-yl)-1-pyrrolidinyl)-N,N-diethyl-2-oxo-1-phenylethanamine], for which the EC50 is 1 to 999 pM.

On to `Cc1[nH]c([C@@H]2CCCN2C(=O)[C@@H](c2ccccc2)N2CCCCC2)nc1-c1ccc(-c2ccc(-c3cnc([C@@H]4CCCN4C(=O)[C@@H](c4ccccc4)N4CCCCC4)[nH]3)cc2)cc1` [Example E5b, 1-((1R)-2-((2S)-2-(4-(4′-(4-methyl-2-((2S)-1-((2R)-2-phenyl-2-(1-piperidinyl)acetyl)-2-pyrrolidinyl)-1H-imidazol-5-yl)-4-biphenylyl)-1H-imidazol-2-yl)-1-pyrrolidinyl)-2-oxo-1-phenylethyl)piperidine], for which the EC50 was 1 to 999 pM.

Regarding `COC(=O)N[C@@H](C(=O)N1CCC[C@H]1c1ncc(-c2ccc(-c3ccc(-c4nc([C@@H]5CCCN5C(=O)[C@H](NC(=O)OC)c5ccccc5)[nH]c4C)cc3)cc2)[nH]1)c1ccccc1` [Example E5c, methyl ((1R)-2-((2S)-2-(4-(4′-(2-((2S)-1-((2R)-2-((methoxycarbonyl)amino)-2-phenylacetyl)-2-pyrrolidinyl)-1H-imidazol-4-yl)-4-biphenylyl)-5-methyl-1H-imidazol-2-yl)-1-pyrrolidinyl)-2-oxo-1-phenylethyl)carbamate], the half-maximal effective concentration (EC50) was 1 to 999 pM.

Consider `COC(=O)N[C@@H](C)C(=O)N1CCC[C@H]1c1ncc(-c2ccc(-c3ccc(-c4nc([C@@H]5CCCN5C(=O)[C@H](C)NC(=O)OC)[nH]c4C)cc3)cc2)[nH]1` [Example E5d, methyl ((1S)-2-((2S)-2-(4-(4′-(2-((2S)-1-(N-(methoxycarbonyl)-L-alanyl)-2-pyrrolidinyl)-4-methyl-1H-imidazol-5-yl)-4-biphenylyl)-1H-imidazol-2-yl)-1-pyrrolidinyl)-1-methyl-2-oxoethyl)carbamate], for which the EC50 fell in the range of 1 to 999 pM.

Consider `COC(=O)N[C@H](C(=O)N1CCC[C@H]1c1ncc(-c2ccc(-c3ccc(-c4nc([C@@H]5CCCN5C(=O)[C@@H](NC(=O)OC)C(C)C)[nH]c4C)cc3)cc2)[nH]1)C(C)C` [Example E5e, methyl ((1S)-1-(((2S)-2-(4-(4′-(2-((2S)-1-((2S)-2-((methoxycarbonyl)amino)-3-methylbutanoyl)-2-pyrrolidinyl)-1H-imidazol-4-yl)-4-biphenylyl)-5-methyl-1H-imidazol-2-yl)-1-pyrrolidinyl)carbonyl)-2-methylpropyl)carbamate], for which the EC50 lay in the range of 1 to 999 pM.

With `Cc1nc([C@@H]2CCCN2C(=O)[C@@H](c2ccccc2)N(C)C)[nH]c1-c1ccc(-c2ccc(-c3nc([C@@H]4CCCN4C(=O)[C@@H](c4ccccc4)N(C)C)[nH]c3C)cc2)cc1` [Example E5g, (1R,1′R)-2,2′-(4,4′-biphenyldiylbis((4-methyl-1H-imidazole-5,2-diyl)(2S)-2,1-pyrrolidinediyl))bis(N,N-dimethyl-2-oxo-1-phenylethanamine)], the EC50 fell in the range of 1 to 999 pM.

With `CCN(CC)[C@@H](C(=O)N1CCC[C@H]1c1nc(-c2ccc(-c3ccc(-c4[nH]c([C@@H]5CCCN5C(=O)[C@@H](c5ccccc5)N(CC)CC)nc4C)cc3)cc2)c(C)[nH]1)c1ccccc1` [Example E5h, (1R,1′R)-2,2′-(4,4′-biphenyldiylbis((4-methyl-1H-imidazole-5,2-diyl)(2S)-2,1-pyrrolidinediyl))bis(N,N-diethyl-2-oxo-1-phenylethanamine)], the 50% effective concentration (EC50) lay in the range of 1 to 999 pM.

Consider `Cc1nc([C@@H]2CCCN2C(=O)[C@@H](c2ccccc2)N2CCCCC2)[nH]c1-c1ccc(-c2ccc(-c3nc([C@@H]4CCCN4C(=O)[C@@H](c4ccccc4)N4CCCCC4)[nH]c3C)cc2)cc1` [Example E5i, 1,1′-(4,4′-biphenyldiylbis((4-methyl-1H-imidazole-5,2-diyl)(2S)-2,1-pyrrolidinediyl((1R)-2-oxo-1-phenyl-2,1-ethanediyl)))dipiperidine], for which the concentration for a half-maximal effect (EC50) lay in the range of 1 to 999 pM.

`COC(=O)N[C@@H](C(=O)N1CCC[C@H]1c1nc(-c2ccc(-c3ccc(-c4[nH]c([C@@H]5CCCN5C(=O)[C@H](NC(=O)OC)c5ccccc5)nc4C)cc3)cc2)c(C)[nH]1)c1ccccc1` [Example E5j, dimethyl (4,4′-biphenyldiylbis((4-methyl-1H-imidazole-5,2-diyl)(2S)-2,1-pyrrolidinediyl((1R)-2-oxo-1-phenyl-2,1-ethanediyl)))biscarbamate]: the EC50 fell in the range of 1 to 999 pM.

In the case of `COC(=O)N[C@@H](C)C(=O)N1CCC[C@H]1c1nc(-c2ccc(-c3ccc(-c4[nH]c([C@@H]5CCCN5C(=O)[C@H](C)NC(=O)OC)nc4C)cc3)cc2)c(C)[nH]1` [Example E5k, methyl ((1S)-2-((2S)-2-(4-(4′-(2-((2S)-1-(N-(methoxycarbonyl)-L-alanyl)-2-pyrrolidinyl)-5-methyl-1H-imidazol-4-yl)-4-biphenylyl)-5-methyl-1H-imidazol-2-yl)-1-pyrrolidinyl)-1-methyl-2-oxoethyl)carbamate], the EC50 fell in the range of 1 to 999 pM.
